{
  "source": "patent US11191265B2",
  "about": "“Method of reducing crop damage” (Bayer CropScience Aktiengesellschaft, priority 2016, dated 2021)",
  "type_in_all_cases": "in vivo",
  "key": {"[1]": {"test_system": "Wheat (winter wheat, TRZAW)", "assay": "Prior-art method: post-emergence herbicide with or without safener in tank mix, greenhouse pot test, crop damage scored visually", "details": "20 days after post-emergence application at BBCH11; herbicide 300 g/ha; safener (mefenpyr-diethyl) 200 g/ha in tank mix where combined; vs untreated controls; mean of at least 3 replicates", "description": "1. Method as Used in the Prior Art\n(§1) Wheat seeds (winter wheat, TRZAW) were placed in sandy loam soil in pots of a diameter of 7 cm, covered with soil and cultivated in a greenhouse under good growth conditions.\nPost-emergence application was done when the plants had reached growth stage BBCH11 (BBCH is the international coding system for the growth stage of crops and weeds).\n(§2) The safener (mefenpyr-diethyl) was formulated as wettable powder (WP).\n(§3) The compounds were sprayed onto the green parts of the plants as an aqueous suspension at an equivalent water application rate of 300 l/ha with addition of 0.2% wetting agent (Agrotin).\n(§4) The combination of herbicide and safener was applied as a tank mix.\n(§5) After application, the test plants were kept in the greenhouse under good growth conditions.\n(§6) Values in the table below are mean values from at least 3 replicates."}, "[2]": {"test_system": "Wheat (winter wheat, TRZAW)", "assay": "Method A: safener seed treatment, then post-emergence herbicide, greenhouse pot test, crop damage scored visually", "details": "20 days after post-emergence application at BBCH11; herbicide 300 g/ha; safener (mefenpyr-diethyl) seed treatment 0.5 g/kg where combined; vs untreated controls; mean of at least 3 replicates", "experimental": "as §1\n(§7) For the safener seed treatment, sufficient seeds were weighed into screw top glass bottles approximately twice the volume of the seeds.\n(§8) The safener (mefenpyr-diethyl, formulated as wettable powder; WP) was weighed out so that the required rates (g a.i./kg seed) would be obtained, dissolved in water (1 ml water per 10 g of seeds), and added to the seeds to produce a slurry.\n(§9) The bottles were capped and then placed in an overhead shaker (set at medium speed for up to 1 hour) so that the seeds were evenly coated with the slurry. The bottles were uncapped and the seeds were sown as described above.\nPost-emergence application of the herbicide was done when the plants had reached growth stage BBCH11.\nas §5, §6"}, "[3]": {"test_system": "Wheat (winter wheat, TRZAW)", "assay": "Method C: safener seed treatment, then post-emergence herbicide plus safener tank mix, greenhouse pot test, crop damage scored visually", "details": "20 days after post-emergence application at BBCH11; herbicide 300 g/ha; safener (mefenpyr-diethyl) seed treatment 0.5 g/kg and 200 g/ha in tank mix where combined; vs untreated controls; mean of at least 3 replicates", "experimental": "as §1, §7, §8, §9\nPost-emergence application was done when the plants had reached growth stage BBCH11.\nas §2, §3, §4, §5, §6"}, "[4]": {"test_system": "Wheat (winter wheat, TRZAW)", "assay": "Method D: safener seed treatment, then pre-emergence herbicide plus safener tank mix, greenhouse pot test, crop damage scored visually", "details": "21 days after pre-emergence application to the soil surface; herbicide 300 g/ha; safener (mefenpyr-diethyl) seed treatment 0.5 g/kg and 200 g/ha in tank mix where combined; vs untreated controls; mean of at least 3 replicates", "experimental": "as §1, §7, §8, §9\nThe compounds were sprayed to the soil surface as an aqueous suspension at an equivalent water application rate of 300 l/ha with addition of 0.2% wetting agent (Agrotin).\nas §4, §5, §6"}},
  "data": [
    {"smiles": "CC1(C)CON(Cc2ccc(Cl)cc2Cl)C1=O", "note": "[Herbicide post-em., 2-(2,4-dichlorophenyl)methyl-4,4-dimethyl-3-isoxazolidinone]", "values": [
      {"measurement": "% chlorosis", "setting": "[1]", "value": 40, "unit": "%"},
      {"measurement": "% growth depression", "setting": "[1]", "value": 40, "unit": "%"},
      {"measurement": "% chlorosis", "setting": "[2]", "value": 40, "unit": "%"},
      {"measurement": "% growth depression", "setting": "[2]", "value": 40, "unit": "%"},
      {"measurement": "% chlorosis", "setting": "[3]", "value": 40, "unit": "%"},
      {"measurement": "% growth depression", "setting": "[3]", "value": 40, "unit": "%"},
      {"measurement": "% chlorosis", "setting": "[4]", "value": 17, "unit": "%"},
      {"measurement": "% growth depression", "setting": "[4]", "value": 27, "unit": "%"}
    ]}
  ]
}
